Data published in patent US10584132B2, “SHMT inhibitors” (The Trustees of Princeton University, priority 2016, dated 2020).
Each block holds one molecule with its values, some of them ahead of it.

Legend:
human SHMT2 = human SHMT2 (Homo sapiens (Human), UniProt P34897); assay: SHMT2 in vitro enzymatic assay (coupled with excess MTHFD2, NADH absorption at 340 nm); assay type: biochemical
Protocol: (§2) For the SHMT1 and SHMT2 in vitro enzymatic assays, the rate of 5,10-methylene tetrahydrofolate formation catalyzed by SHMT1/2 was indirectly evaluated by coupling with excess MTHFD2, which converts NAD+ to NADH allowing for reaction monitoring by absorption at 340 nm. […] Inhibition of initial reaction velocity was determined by adding various inhibitors at different concentrations and monitored as described. IC50 may be calculated based on this assay.

HCT-116 WT cells = assay: Cell growth assay (resazurin), HCT-116 wild type, with or without formate; assay type: cell-based, human; details: for rescue of effects on cell growth by addition of formate: HCT-116, formate
Protocol: (§1) The described cell lines for Examples 8 and 9 are cultured in 96-well plates in Dulbecco's modified eagle media (DMEM) without pyruvate (CELLGRO) with 10% dialysed fetal bovine serum (Invitrogen) in 5% CO2 at 37° C. Approximately 2,500 cells are plated in each well in 90 uL of media. After 24 hours cells are treated with various concentrations of inhibitor (time=0 hours), with or without formate. Growth was assessed at multiple time points (time=0, 24, 48, 72 hours) through measurement of fluorescence at 595 nm (excitation at 535 nm) on a BioTek micro titer plate reader after incubation with resazurin (0.01 mg/mL for 1.5 hours). IC50 curves are generated from percent inhibition of growth at 72 hours.

HCT-116 ΔSHMT2 cells = assay: Cell growth assay, HCT-116 SHMT2 deletion (knock-out) cells; assay type: cell-based, human
Protocol: as §1
Clonal deletion cell lines of SHMT1, SHMT2, and SHMT1/2 were generated from the human colorectal carcinoma cell line HCT-116. Paired Cas9 nickase (Cas9n) containing constructs that encoded single-guide RNA sequences targeting SHMT1 or 2 were transiently transfected into cells, and mutant colonies from single clones were picked as described in Ducker et al., (2016) Reversal of Cytosolic One-Carbon Flux Compensates for Loss of the Mitochondrial Folate Pathway, Cell Metab 23, 1140-1153. SHMT1 deletion had no effect on cell growth either in cell culture or as subcutaneous xenografts in nude mice. In contrast, SHMT2 deletion cells grew slower in culture and as xenografts (FIG. 8A).

LogP Value = assay type: physicochemical
Liver microsome assay = assay type: in vitro ADME; details: pooled male mouse liver microsomes, 2 μM
Protocol: The following master solution was prepared before compound addition:
Two separate experiments were performed as follows: a) With Cofactors (NADPH and UDPGA): 40 μL of 10 mM NADPH and 40 μL of 20 mM UDPGA were added to the incubations. The final concentrations of microsomes, NADPH and UDPGA were 0.5 mg/mL, 1 mM and 2 mM, respectively. b) Without Cofactors (NADPH and UDPGA): 10 μL of 20 mg/mL liver microsomes and 80 μL of ultra-pure water were added to the incubations. The final concentration of microsomes was 0.5 mg/mL. The mixture was pre-warmed at 37° C. for 5 minutes.
The reaction was started with the addition of 4 μL of 200 μM control compound or test compound solution. Verapamil was used as positive control in this study. The final concentration of test compound or control compound was 2 μM. The incubation solution was incubated in water bath at 37° C. Aliquots of 50 μL were taken from the reaction solution at 0.5, 5, 15, 30, 45 and 60 minutes. The reaction was stopped by the addition of 5 volumes of cold acetonitrile with IS (100 nM alprazolam, 200 nM caffeine and 100 nM tolbutamide). Samples were centrifuged at 3,220 g for 40 minutes. Aliquot of 100 μL of the supernatant was mixed with 100 μL of ultra-pure H2O and then used for LC-MS/MS analysis. The in vitro half-life (in vitro t1/2) was determined from the slope value of the LC-MS signal of the test compound.

human SHMT1 = human SHMT1 (Homo sapiens (Human), UniProt P34896); assay: SHMT1 in vitro enzymatic assay (coupled with excess MTHFD2, NADH absorption at 340 nm); assay type: biochemical
human SHMT1, sequence (P34896 whole entry): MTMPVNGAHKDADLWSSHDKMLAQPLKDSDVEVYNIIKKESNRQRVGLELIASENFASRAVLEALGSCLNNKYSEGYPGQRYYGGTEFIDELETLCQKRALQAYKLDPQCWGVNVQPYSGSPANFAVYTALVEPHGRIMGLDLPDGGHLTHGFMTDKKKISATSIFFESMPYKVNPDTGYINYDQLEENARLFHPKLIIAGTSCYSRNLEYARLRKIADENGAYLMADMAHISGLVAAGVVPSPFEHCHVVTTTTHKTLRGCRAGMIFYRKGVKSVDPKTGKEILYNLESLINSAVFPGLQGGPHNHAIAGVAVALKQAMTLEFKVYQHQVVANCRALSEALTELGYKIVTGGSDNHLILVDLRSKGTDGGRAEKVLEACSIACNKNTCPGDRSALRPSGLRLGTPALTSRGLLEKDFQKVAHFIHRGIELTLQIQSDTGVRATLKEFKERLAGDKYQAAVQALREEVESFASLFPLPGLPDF
Protocol: as §2

8988T cells = assay: Growth of pancreatic cancer cell line 8988T; assay type: cell-based, human
Su-DHL-4 cells [1] = assay: Apoptosis by flow cytometry (Annexin V surface staining), Su-DHL-4; assay type: cell-based, human; details: for apoptotic fraction of cells: 24 hours
Description: Apoptosis was enhanced by co-treatment with formate. In contrast, as expected, formate rescued Jurkat E6-1 leukemia cells from apoptosis (FIG. 11C). Without wishing to be bound by theory, it is hypothesized that the failure of formate to rescue growth in the DLBCL cell lines is due to a requirement for both glycine and 1C units made by SHMT in these cells. When glycine is limiting, formate can enhance the cytotoxicity of SHMT inhibition. […] Mechanistically, by supplying 5,10-methylene-THF, formate may drives residual SHMT enzymatic function in the […] direction.
In contrast, cell growth is further decreased in Su-DHL4 cells by addition of formate. This can be further exacerbated by removal of glycine from the media. […] Using flow cytometry, apoptosis of Su-DHL4 cells were studied with AnnexinV surface staining (FIGS. 12D and 12E).

Su-DHL-4 cells [2] = assay: Growth of Su-DHL-4 cells in RPMI; assay type: cell-based, human; details: for cell growth (or death) over 48 h: Su-DHL-4, 5 μM
Protocol: Cells were stained with propidium iodide and FITC conjugated Annexin V. 10,000 events shown. […] All conditions included at least normal media glycine (10 mg/L) (mean±SD, n=3).
Co-culture with 1 mM formate restores nucleotide levels selectively in Jurkat cells (mean±SD, n=3-6). […] Note the low uptake in Su-DHL-4 cells (gly=glycine, GSH=glutathione) (mean±SD, n=3). […] The SHMT reaction makes two products, 5,10-methyleneTHF and glycine. When SHMT is inhibited, exogenous formate can be incorporated into the 1C cycle whereas in B-cells poor glycine uptake limits the ability of extracellular glycine to rescue. Strategies that further stress glycine availability augment the efficacy of SHMT inhibition.

human SHMT2, sequence (P34897 30-504): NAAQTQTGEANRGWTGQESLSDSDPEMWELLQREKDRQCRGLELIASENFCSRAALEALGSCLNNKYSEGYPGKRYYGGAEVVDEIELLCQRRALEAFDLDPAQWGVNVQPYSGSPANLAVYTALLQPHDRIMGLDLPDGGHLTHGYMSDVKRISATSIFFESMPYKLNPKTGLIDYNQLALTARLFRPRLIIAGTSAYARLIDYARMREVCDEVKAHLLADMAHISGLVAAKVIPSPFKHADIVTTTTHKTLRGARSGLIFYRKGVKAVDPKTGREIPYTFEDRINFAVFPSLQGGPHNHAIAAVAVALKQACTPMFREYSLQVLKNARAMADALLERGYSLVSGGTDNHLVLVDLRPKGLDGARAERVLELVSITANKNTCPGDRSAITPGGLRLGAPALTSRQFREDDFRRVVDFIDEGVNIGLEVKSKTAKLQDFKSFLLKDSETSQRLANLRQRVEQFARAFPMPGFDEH

IC50 (human SHMT2): 500 nM
SMILES: COc1cc(Cl)cc(C2(C(C)C)C(C#N)=C(N)Oc3[nH]nc(C)c32)c1 (centres unmarked) [HK-13]

IC50 (human SHMT2): 400 nM
SMILES: Cc1n[nH]c2c1C(c1cccc(Cl)c1)(C(C)C)C(C#N)=C(N)O2 (centres unmarked) [HK-7]

IC50 (human SHMT2): 1190 nM
SMILES: Cc1n[nH]c2c1C(c1cccc(Cl)c1)(C1CCC1)C(C#N)=C(N)O2 (centres unmarked) [HK-3]

IC50 (human SHMT2): 131 nM | IC50 (human SHMT1): 67 nM
SMILES: Cc1n[nH]c2c1C(c1cc(Cl)cc(Cl)c1)(C(C)C)C(C#N)=C(N)O2 (centres unmarked) [HK-14]

IC50 (human SHMT2): 3460 nM
SMILES: COc1cc(Cl)cc(C2(C3CCC3)C(C#N)=C(N)Oc3[nH]nc(C)c32)c1 (centres unmarked) [HK-9]

IC50 (human SHMT2): 35 nM | IC50 (human SHMT1): 20 nM
SMILES: Cc1n[nH]c2c1C(c1cc(Cl)cc(C(F)(F)F)c1)(C(C)C)C(C#N)=C(N)O2 (centres unmarked) [HK-15]

IC50 (human SHMT2): 4580 nM
SMILES: COc1cccc(C2(C(C)C)C(C#N)=C(N)Oc3[nH]nc(C)c32)c1 (centres unmarked) [HK-6]

IC50 (human SHMT2): 100 nM
SMILES: Cc1n[nH]c2c1C(c1cc(Cl)cc(C(F)(F)F)c1)(C1CCC1)C(C#N)=C(N)O2 (centres unmarked) [HK-11]

IC50 (human SHMT2): 168 nM | IC50 (human SHMT1): 206 nM
SMILES: Cc1n[nH]c2c1C(c1cc(C(F)(F)F)cc(C(F)(F)F)c1)(C1CCC1)C(C#N)=C(N)O2 (centres unmarked) [HK-12]

IC50 (human SHMT2): 1190 nM | IC50 (human SHMT1): 593 nM
SMILES: Cc1n[nH]c2c1C(c1cc(Cl)cc(Cl)c1)(C1CCC1)C(C#N)=C(N)O2 (centres unmarked) [HK-10]

Further lines, the molecule ahead of its results:

SMILES: Cc1n[nH]c2c1C(c1cc(C#CCCCO)cc(C(F)(F)F)c1)(C(C)C)C(C#N)=C(N)O2 (centres unmarked) [Compound 61, 6-amino-4-(3-(5-hydroxypent-1-yn-1-yl)-5-(trifluoromethyl)phenyl)-4-isopropyl-3-methyl-1,4-dihydropyrano[2,3-c]pyrazole-5-carbonitrile]
inhibition of growth (proliferation) of HCT116 cells (HCT-116 WT cells; native HCT116): inhibited growth | inhibition of growth of SHMT2 knock-out HCT116 cells versus native (HCT-116 ΔSHMT2 cells): increased potency

SMILES: Cc1n[nH]c2c1C(c1cc(C#CCCC(N)=O)cc(C(F)(F)F)c1)(C(C)C)C(C#N)=C(N)O2 (centres unmarked) [Compound 11]
logP (LogP Value): 3.22

SMILES: Cc1n[nH]c2c1C(c1cc(C#CCCCO)cc(CO)c1)(C(C)C)C(C#N)=C(N)O2 (centres unmarked) [Compound 74]
CLint (replicate 2) (Liver microsome assay): 67.96 μL/min/mg protein

SMILES: Cc1n[nH]c2c1C(c1cc(C#CCCC(=O)N[C@@H](CCC(=O)O)C(=O)O)cc(C(F)(F)F)c1)(C(C)C)C(C#N)=C(N)O2 (some centres unmarked) [Compound 69]
logP (LogP Value): 2.49

SMILES: Cc1n[nH]c2c1C(c1cc(C#CCCC(=O)O)cc(C(F)(F)F)c1)(C(C)C)C(C#N)=C(N)O2 (centres unmarked) [Compound 4]
logP (LogP Value): 3.56

SMILES: Cc1n[nH]c2c1C(c1cc(CO)cc(-c3ccccc3)c1)(C(C)C)C(C#N)=C(N)O2 (centres unmarked) [HK-X2]
rescue of effects on cell growth by addition of formate (HCT-116 WT cells): rescued | concentration that impairs cell growth (8988T cells): < 100 nM | apoptotic fraction of cells (Su-DHL-4 cells [1]; Su-DHL4, inhibitor alone): 8% | apoptotic fraction of cells (Su-DHL-4 cells [1]; Su-DHL4, inhibitor in the presence of formate): 15% | apoptosis measured by Annexin V surface staining (Su-DHL-4 cells [1]; Su-DHL-4, co-treatment with formate): enhanced | apoptosis measured by Annexin V surface staining (Su-DHL-4 cells [1]; Su-DHL-4, inhibitor alone): induced apoptosis | IC70 (Su-DHL-4 cells [2]; SU-DHL4, RPMI): 5 µM | cell growth (or death) over 48 h (Su-DHL-4 cells [2]; formate (1 mM) added): fully cytostatic | cell growth (or death) over 48 h (Su-DHL-4 cells [2]; formate added and glycine removed): significant cell death

SMILES: Cc1n[nH]c2c1C(c1cc(C#N)cc(C#CCCC(=O)O)c1)(C(C)C)C(C#N)=C(N)O2 (centres unmarked) [Compound 68]
logP (LogP Value): 2.37

SMILES: Cc1n[nH]c2c1C(c1cc(N3CCCC3)cc(C(F)(F)F)c1)(C(C)C)C(C#N)=C(N)O2 (centres unmarked) [HK-X1]
IC50 (human SHMT2): 66 nM | IC50 (human SHMT1): 13 nM | rescue of effects on cell growth by addition of formate (HCT-116 WT cells): rescued

SMILES: Cc1n[nH]c2c1C(c1cc(C#CCCCN)cc(C(F)(F)F)c1)(C(C)C)C(C#N)=C(N)O2 (centres unmarked) [Compound 8]
logP (LogP Value): 2.72

SMILES: Cc1n[nH]c2c1C(c1cc(C#N)cc(C#CCCCO)c1)(C(C)C)C(C#N)=C(N)O2 (centres unmarked) [Compound 71]
logP (LogP Value): 2.89
